Results as given in patent US12187702B2, “Sulfonamideurea compounds” (Inflazome Limited, priority 2018, dated 2025).
pIC50: −log10 of the molar value. Where a name gives a salt, the structure may show the parent alone.

Key:
[1] = PK, intravenous administration; type: in vivo, male Sprague Dawley rats; details: male, Sprague Dawley, plasma, rat; for clearance / half-life: dose per compound as in Table 3; for AUC: dose per compound as in Table 3 (0.08-1.86 mg/kg); for Vd: dose per compound as in Table 3, read-out: Vdss
Description: (§1) Pharmacokinetic parameters were determined in male Sprague Dawley rats (Charles River, UK, 250-350 g; or Vital River Laboratory Animal Technology Co Ltd, Beijing, China, 7-9 weeks old). Animals were individually housed during the study and maintained under a 12 h light/dark cycle.
(§2) For intravenous administration, compounds were formulated as a solution in water or DMSO:PBS [10:90] in 2 mL/kg dosing volume and administered via tail or jugular vein. For oral administration, compounds were formulated as a solution in 0.5% w/v methyl cellulose in water in 5 mL/kg dosing volume and administered orally.
(§3) Serial blood samples (about 120-300 μL) were taken from each animal at each of 8 time-points post dose (0.083, 0.25, 0.5, 1, 2, 4, 8 and 24 h) or at each of 12 time-points post dose (0.03, 0.1, 0.17, 0.25, 0.5, 1, 2, 4, 6, 8, 12 and 24 h) or pre-dose and at each of 9 time-points post dose (0.25, 0.5, 1, 2, 4, 6, 8, 12 and 24 h). Samples were held on ice for no longer than 30 minutes before centrifugation (10,000 rpm (8,385 g) for 3 minutes; or 5,696 rpm (3,000 g) for 15 minutes) for plasma generation. Plasma was frozen on dry ice prior to bioanalysis. PK parameters were generated from LC-MS/MS data using Dotmatics or Phoenix WinNonlin 6.3 software.

NLRP3 [2] = target: T1, NLRP3 (Homo sapiens, UniProt Q96P20); assay: THP-1 cells pyroptosis assay (LPS + nigericin, resazurin read-out); type: cell-based; parameters: Seed THP-1 cells (25,000 cells/well) containing 1.0 μg/ml LPS; host or cells: THP-1 cells; details: THP-1 cells, 1 μg/ml LPS, 5 μM nigericin; NLRP3 inhibitory activity; read-out: THP IC50
T1 sequence (Q96P20 whole entry): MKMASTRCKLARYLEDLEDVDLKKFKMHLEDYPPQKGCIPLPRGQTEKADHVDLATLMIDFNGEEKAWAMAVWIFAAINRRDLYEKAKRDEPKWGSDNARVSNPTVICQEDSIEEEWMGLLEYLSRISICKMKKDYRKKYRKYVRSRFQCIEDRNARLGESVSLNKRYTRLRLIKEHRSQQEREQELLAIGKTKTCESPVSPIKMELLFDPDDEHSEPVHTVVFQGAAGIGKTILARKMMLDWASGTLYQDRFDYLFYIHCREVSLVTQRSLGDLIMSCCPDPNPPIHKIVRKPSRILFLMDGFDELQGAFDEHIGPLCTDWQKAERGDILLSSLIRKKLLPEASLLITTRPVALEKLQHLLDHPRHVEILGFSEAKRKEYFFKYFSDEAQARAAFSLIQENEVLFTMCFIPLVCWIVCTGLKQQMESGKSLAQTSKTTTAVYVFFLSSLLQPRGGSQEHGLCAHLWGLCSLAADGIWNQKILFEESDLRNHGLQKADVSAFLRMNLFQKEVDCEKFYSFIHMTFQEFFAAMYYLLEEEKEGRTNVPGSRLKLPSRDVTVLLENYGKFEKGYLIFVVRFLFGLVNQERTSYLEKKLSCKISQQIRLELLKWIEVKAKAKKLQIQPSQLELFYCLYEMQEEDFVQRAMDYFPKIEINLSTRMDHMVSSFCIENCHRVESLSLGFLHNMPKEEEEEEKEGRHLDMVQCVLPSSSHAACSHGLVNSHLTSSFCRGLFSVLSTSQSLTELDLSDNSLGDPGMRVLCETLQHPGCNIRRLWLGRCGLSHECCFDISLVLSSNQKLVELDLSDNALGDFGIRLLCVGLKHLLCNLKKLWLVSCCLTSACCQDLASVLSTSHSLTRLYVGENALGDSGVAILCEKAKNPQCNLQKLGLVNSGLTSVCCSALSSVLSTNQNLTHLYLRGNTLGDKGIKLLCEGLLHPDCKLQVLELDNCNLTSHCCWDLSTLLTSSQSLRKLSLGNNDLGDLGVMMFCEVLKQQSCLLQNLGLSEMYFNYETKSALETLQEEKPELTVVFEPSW
Procedure, shortened: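 THP-1 cells (25,000/well) primed with 1 μg/ml LPS in serum-free RPMI, treated 3 h with compound (8-point half-log series, 10 μM top, 0.1% DMSO), then 5 μM nigericin for 1 h at 37 °C. Viability read by 100 μM resazurin fluorescence after 1-2 h; IC50 from 4-parameter fit.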

NLRP3 [3] = target: T1, NLRP3; assay: Human whole blood IL-1β release assay (LPS + nigericin, AlphaLisa); type: cell-based; parameters: Plate out 80 μl of whole blood containing 1 μg/ml of LPS; from tissue; host or cells: human whole blood from healthy donors; details: human whole blood, 1 μg/ml LPS, 10 μM nigericin; IL-1β release; read-out: HWB IC50
Procedure, shortened: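 Healthy-donor Li-heparin whole blood containing 1 μg/ml LPS incubated with compound (8-point half-log dilution, 10 μM top) for 3 h at 37 °C, then with 10 μM nigericin for 1 h. Supernatant IL-1β measured by AlphaLisa; IC50 from 4-parameter variable-slope fit.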

PK, oral administration = type: in vivo, male Sprague Dawley rats; details: male, Sprague Dawley, plasma, rat, 3 mg/kg
Description: as §1, §2, §3

Row | clearance [1] | half-life [1] | AUC [1] | Vd [1] | pIC50 (NLRP3 [2]) | pIC50 (NLRP3 [3]) | AUC (PK, oral administration) | CL/F (PK, oral administration) | Cmax (PK, oral administration) | Tmax (PK, oral administration) | bioavailability (PK, oral administration) | half-life (PK, oral administration) | Compound
1 | 2.3 mL/min/kg | 2.7 h | 7270 ng·h/mL | 0.35 L/kg | > 6.30 | > 6.30 | – | – | – | – | – | – | CN(C)CCN(C)S(=O)(=O)NC(=O)Nc1c2c(cc3c1CCC3)CCC2 [Example 6, potassium salt]
2 | 7.3 mL/min/kg | 4 h | 2290 ng·h/mL | 0.61 L/kg | > 6.00 | > 6.30 | – | – | – | – | – | – | CN(C)CCNS(=O)(=O)NC(=O)Nc1c2c(cc3c1CCC3)CCC2 [Example 8, 3-(N-(2-(Dimethylamino)ethyl)sulfamoyl)-1-(1,2,3,5,6,7-hexahydro-s-indacen-4-yl)urea]
3 | 2.9 mL/min/kg | 2.7 h | 5660 ng·h/mL | 0.59 L/kg | > 6.30 | > 6.30 | – | – | – | – | – | – | CN1CCC(N(C)S(=O)(=O)NC(=O)Nc2c3c(cc4c2CCC4)CCC3)C1 (stereo not shown) [Example 11, 3-(N-Methyl-N-(1-methylpyrrolidin-3-yl)sulfamoyl)-1-(1,2,3,5,6,7-hexahydro-s-indacen-4-yl)urea, potassium salt]
4 | 7.1 mL/min/kg | 1.2 h | 2360 ng·h/mL | 0.4 L/kg | > 6.30 | > 6.30 | – | – | – | – | – | – | CN1CCCCC1CNS(=O)(=O)NC(=O)Nc1c2c(cc3c1CCC3)CCC2 (stereo not shown) [Example 20, 3-(N-((1-Methylpiperidin-2-yl)methyl)sulfamoyl)-1-(1,2,3,5,6,7-hexahydro-s-indacen-4-yl)urea, potassium salt]
5 | 2.8 mL/min/kg | 1.1 h | 5910 ng·h/mL | 0.23 L/kg | > 6.30 | > 6.00 | – | – | – | – | – | – | CC(C)N1CCC(N(C)S(=O)(=O)NC(=O)Nc2c3c(cc4c2CCC4)CCC3)C1 (stereo not shown) [Example 36, 3-(N-(1-isopropylpyrrolidin-3-yl)-N-methylsulfamoyl)-1-(1,2,3,5,6,7-hexahydro-s-indacen-4-yl)urea, potassium salt]
6 | 3.7 mL/min/kg | 3.44 h | 6760 ng·h/mL | 0.43 L/kg | > 6.30 | > 6.30 | – | – | – | – | – | – | CN1CC[C@@H](N(C)S(=O)(=O)NC(=O)Nc2c3c(cc4c2CCC4)CCC3)C1 [Example 66, 3-((R)—N-Methyl-N-(1-methylpyrrolidin-3-yl)sulfamoyl)-1-(1,2,3,5,6,7-hexahydro-s-indacen-4-yl)urea, potassium salt]
7 | 5.7 mL/min/kg | 1.14 h | 5150 ng·h/mL | 0.45 L/kg | > 6.30 | > 6.30 | – | – | – | – | – | – | CN1CCC2CN(S(=O)(=O)NC(=O)Nc3c4c(cc5c3CCC5)CCC4)CC21 (stereo not shown) [Example 96, N-((1,2,3,5,6,7-Hexahydro-s-indacen-4-yl)carbamoyl)-1-methylhexahydropyrrolo[3,4-b]pyrrole-5(1H)-sulfonamide, potassium salt]
8 | 6 mL/min/kg | 5.61 h | 5150 ng·h/mL | 0.84 L/kg | – | – | – | – | – | – | – | – | COc1cc(-c2ccc3c(c2NC(=O)NS(=O)(=O)N2CC4CCN(C)C4C2)CCC3)ccn1 (stereo not shown) [Example 106]
9 | 20 mL/min/kg | 3.9 h | 835 ng·h/mL | 1.6 L/kg | > 6.30 | > 6.30 | 1020 ng·h/mL | 50 mL/min/kg | 277 ng/mL | 0.67 h | 41% | 3.4 h | COc1cc(-c2ccc3c(c2NC(=O)NS(=O)(=O)N(C)[C@@H]2CCN(C)C2)CCC3)ccn1 [Example 110, (R)-3-(N-Methyl-N-(1-methylpyrrolidin-3-yl)sulfamoyl)-1-(5-(2-methoxypyridin-4-yl)-2,3-dihydro-1H-inden-4-yl)urea, potassium salt]
10 | 17 mL/min/kg | 4.8 h | 979 ng·h/mL | 1.3 L/kg | > 6.30 | > 6.30 | 1380 ng·h/mL | 38 mL/min/kg | 318 ng/mL | 0.67 h | 47% | 4 h | COc1cc(-c2ccc3c(c2NC(=O)NS(=O)(=O)N(C)[C@H]2CCN(C)C2)CCC3)ccn1 [Example 111, (S)-3-(N-methyl-N-(1-methylpyrrolidin-3-yl)sulfamoyl)-1-(5-(2-methoxypyridin-4-yl)-2,3-dihydro-1H-inden-4-yl)urea, potassium salt]
